Results published in BindingDB's records for doi:10.1016/j.bmcl.2017.02.035 (Nestl&#65533, 2017).

Target: Disintegrin and metalloproteinase domain-containing protein 17 (Homo sapiens, UniProt P78536)
Experiment: Inhibition of recombinant TACE catalytic domain (unknown origin) using Abz-LAQAVRSSSR-Dpa as substrate preincubated for 10 mins followed by substrate addition measured after 10 mins by FRET assay

Disintegrin and metalloproteinase domain-containing protein 17, sequence (P78536 whole entry, the tested form may be a part): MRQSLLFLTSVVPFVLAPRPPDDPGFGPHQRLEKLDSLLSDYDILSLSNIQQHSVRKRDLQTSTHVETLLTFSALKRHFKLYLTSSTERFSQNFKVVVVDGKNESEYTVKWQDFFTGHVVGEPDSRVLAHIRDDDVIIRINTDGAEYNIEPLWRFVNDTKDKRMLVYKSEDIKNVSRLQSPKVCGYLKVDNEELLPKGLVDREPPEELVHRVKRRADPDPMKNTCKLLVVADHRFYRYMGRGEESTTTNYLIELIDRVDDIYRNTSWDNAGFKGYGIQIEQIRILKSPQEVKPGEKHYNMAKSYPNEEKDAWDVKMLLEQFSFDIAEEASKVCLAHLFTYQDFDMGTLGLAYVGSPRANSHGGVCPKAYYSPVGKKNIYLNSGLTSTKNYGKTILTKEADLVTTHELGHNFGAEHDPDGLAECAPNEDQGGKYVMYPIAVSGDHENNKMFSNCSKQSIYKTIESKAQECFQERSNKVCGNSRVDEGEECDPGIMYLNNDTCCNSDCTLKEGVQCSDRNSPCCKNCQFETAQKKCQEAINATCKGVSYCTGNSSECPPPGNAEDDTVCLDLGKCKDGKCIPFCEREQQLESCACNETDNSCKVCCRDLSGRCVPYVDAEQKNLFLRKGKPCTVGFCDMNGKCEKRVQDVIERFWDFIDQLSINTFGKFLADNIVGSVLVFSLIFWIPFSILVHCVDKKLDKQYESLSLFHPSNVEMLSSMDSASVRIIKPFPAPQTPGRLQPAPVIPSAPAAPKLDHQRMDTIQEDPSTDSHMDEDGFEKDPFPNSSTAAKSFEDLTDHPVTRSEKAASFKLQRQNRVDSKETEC

IC50: 0.7 nM
SMILES: C#CCN1C[C@H](C(=O)NO)[C@H](NS(=O)(=O)c2ccc(OCc3cc(C)nc4ccccc34)cc2)C1
